Experimental data as given in PMC4979060, “Structural basis of metallo-β-lactamase, serine-β-lactamase and penicillin-binding protein inhibition by cyclic boronates” (Nature Communications, 2016).
In brackets after ≈: the same amount, converted by molar mass. Read-outs that look alike come from different tables or passages of the source.

Tests used:
BcII = biological target: T1, BcII (Bacillus cereus, UniProt P04190); assay: Fluorogenic β-lactamase inhibition assay (FC-5 substrate), BcII; type: biochemical; conditions: for IC50: 10 min preincubation
T1 construct: made in house; host or cells: E. coli
Experimental: (§1) Kinetic and inhibition analyses, and ^19F NMR studies[10] against bacterial β-lactamases were performed as described. The FC-5 cephalosporin[9] was used as substrate for BcII, VIM-2, IMP-1, NDM-1, SPM-1, TEM-1 and OXA-10, meropenem[28] for CphA and nitrocefin[34] for PBP 3 and PBP 5.
(§2) In brief IC50 values were determined by preincubation of the appropriate amount of enzyme with the cyclic boronates in the assay buffers for 10 min at room temperature prior to the initiation of the assay by the addition of the appropriate substrate. The enzyme concentrations used are the following: 1 nM BcII, 100 nM VIM-2, 10 nM IMP-1, 10 nM NDM-1, 1 nM SPM-1, 1 nM TEM-1, 1 nM OXA-10, 2.5 nM CphA, 4 μM PBP 3 and 5 μM PBP 5; note that the final concentrations are stated. The assay buffers used are the following: 50 mM HEPES, pH 7.2 supplemented with 1 μg BSA, 1 μg ZnSO4 and 0.01% Triton for BcII, VIM-2, IMP-1, NDM-1 and SPM-1, 15 mM MES, pH 6.5 for CphA, 50 mM HEPES, pH 7.2 supplemented with 200 mM NaCl and 0.01% Triton 100 for TEM-1, 100 mM sodium phosphate, pH 7.2 supplemented with 50 mM NaHCO3 and 0.01% Triton 100 for OXA-10 and 50 mM HEPES, pH 7.2 supplemented with 200 mM NaCl and 0.01% Triton 100 for PBP 3 and PBP 5. The amount of substrates used is the following: 5 μM for BcII, VIM-2, IMP-1, NDM-1 and SPM-1, 10 μM for TEM-1 and OXA-10, 125 μM for CphA and 25 μM for PBP 3 and PBP 5; note that the final concentrations are stated.
(§3) The experiments were performed using a PHERAstar FS microplate reader (BMG Labtech) at room temperature (24–25 °C). All enzymes and inhibitors were prepared in the specific assay buffer. The kinetic values in this study are the means from at least three independent measurements; at least nine different concentrations of the inhibitor were used to determine the kinetic parameters (IC50). The IC50 values were determined using the software package Graph Prism 5.

VIM-2 = biological target: T2, VIM-2 (Escherichia coli, UniProt Q5U7L7); assay: Fluorogenic β-lactamase inhibition assay (FC-5 substrate), VIM-2; type: biochemical; conditions: for IC50: 10 min preincubation
T2 construct: made in house; host or cells: E. coli
Experimental: as §1, §2, §3

IMP-1 = biological target: T3, IMP-1 (Serratia marcescens, UniProt P52699); assay: Fluorogenic β-lactamase inhibition assay (FC-5 substrate), IMP-1; type: biochemical
T3 construct: made in house; host or cells: E. coli
Experimental: as §1
In brief IC50 values were determined by preincubation of the appropriate amount of enzyme with the cyclic boronates in the assay buffers for 10 min at room temperature prior to the initiation of the assay by the addition of the appropriate substrate. The enzyme concentrations used are the following: 1 nM BcII, 100 nM VIM-2, 10 nM IMP-1, 10 nM NDM-1, 1 nM SPM-1, 1 nM TEM-1, 1 nM OXA-10, 2.5 nM CphA, 4 μM PBP 3 and 5 μM PBP 5; note that the final concentrations are stated. […]
The experiments were performed using a PHERAstar FS microplate reader (BMG Labtech) at room temperature (24–25 °C). […] The IC50 values were determined using the software package Graph Prism 5.

NDM-1 = biological target: T4, NDM-1 (Klebsiella pneumoniae, UniProt C7C422); assay: Fluorogenic β-lactamase inhibition assay (FC-5 substrate), NDM-1; type: biochemical; conditions: for IC50: 10 min preincubation
T4 construct: made in house; host or cells: E. coli
Experimental: as §1, §2, §3

SPM-1 = SPM-1 (Pseudomonas aeruginosa, UniProt Q8G9Q0); assay: Fluorogenic β-lactamase inhibition assay (FC-5 substrate), SPM-1; type: biochemical; conditions: for IC50: 10 min preincubation
Experimental: as §1, §2, §3

CphA = biological target: T5, CphA (Aeromonas hydrophila, UniProt P26918); assay: B2 MBL inhibition assay (meropenem substrate), CphA; type: biochemical, Aeromonas hydrophilia; conditions: for IC50: 10 min preincubation
T5 construct: made in house; host or cells: E. coli
Experimental: as §1, §2, §3

TEM-1 = biological target: T6, TEM-1 (Escherichia coli, UniProt P62593); assay: Fluorogenic β-lactamase inhibition assay (FC-5 substrate), TEM-1; type: biochemical; conditions: for IC50: 10 min preincubation
T6 construct: made in house; host or cells: E. coli
Experimental: as §1, §2, §3

OXA-10 = biological target: T7, OXA-10 (Pseudomonas aeruginosa, UniProt P14489); assay: Fluorogenic β-lactamase inhibition assay (FC-5 substrate), OXA-10; type: biochemical; conditions: for IC50: 10 min preincubation
T7 construct: made in house; host or cells: E. coli
Experimental: as §1, §2, §3

PBP 3 = biological target: T8, PBP 3 (Pseudomonas aeruginosa, UniProt G3XD46); assay: PBP inhibition assay (nitrocefin substrate), PBP 3; type: biochemical; conditions: NI = no inhibition at 100 μM, read-out: IC50 (μM)/pIC50 (converted)
T8 construct: made in house; host or cells: E. coli
Experimental: as §1, §2, §3

[1] = system: K. pneumoniae Ecl8 pSU18:NDM-1; assay: MIC by broth microdilution and checkerboard; type: cell-based; conditions: for MIC: Klebsiella pneumoniae
From the text: (§4) Bacterial strains: E. coli ATCC 25922 (ref. [35]) and K. pneumoniae NCTC 5055 (ref. [36]) were used as reference strains. K. pneumoniae Ecl8 (ref. [16]) and its ramR knock-out[37] were used as previously described. K. pneumoniae strain IR8 (ref. [40]), and E. coli strains IR10 and IR60 (ref. [17]) were generous gifts of Prof. T.R. Walsh. Plasmid pSU18:NDM-1 contains the complete blaNDM-1 open reading frame, together with its promoter, cloned into plasmid pSU18 (ref. [41]). The recombinant plasmid was made by PCR amplifying the blaNDM-1 gene and surrounding sequences from E. coli IR10 with primers NDM1F 5′- […] -3′ and NDM1R 5′- GGCGATGACAGCATCATC -3′, TA cloning the amplicon into pCR2.1 TOPO (Invitrogen) and subcloning into pSU18 using BamHI and XbaI.
(§5) MIC values were determined by broth microdilution, in triplicate, in cation-adjusted Mueller Hinton broth (Sigma) according to the Clinical Laboratory Standards Institute (CLSI) guidelines. Experiments were carried out in microtitre plates (Corning) containing the medium plus meropenem (Sequoia Research Products, Pangbourne, UK) and/or inhibitor 2 as appropriate. Chloramphenicol (20 μg ml^−1) was included in assays of strains (K. pneumoniae Ecl8 and derivative) that carried pSU18 plasmids or derivatives (pSU18:NDM-1) to ensure maintenance of plasmids throughout. Inhibitor 2 was dissolved in DMSO to 100 mg ml^−1 and diluted in broth. The final concentration of DMSO in the assays was kept constant at 0.01% (experiments using 10 μg ml^−1 inhibitor) or 0.03% (experiments using 25 μg ml^−1 inhibitor). Plates were incubated overnight at 37 °C for 18–24 h and absorbance at 600 nm read using a Polarstar Omega (BMG LabTech) plate reader.

K. pneumoniae IR8 = assay: microbe, parasite or virus in culture; type: cell-based; conditions: Klebsiella pneumoniae, K. pneumoniae IR8
From the text: as §4, §5

E. coli IR10 = assay: MIC by broth microdilution; type: cell-based; conditions: Escherichia coli
From the text: as §4, §5

E. coli IR60 = assay: MIC by broth microdilution; type: cell-based; conditions: Escherichia coli
From the text: as §4, §5

[2] = system: K pneumoniae Ecl8 ΔramR pSU18:NDM-1; assay: MIC by broth microdilution; type: cell-based; conditions: Ecl8 ΔramR pSU18:NDM-1; for MIC: Klebsiella pneumoniae; for Meropenem MIC (25 μg ml^−1 2): with 25 μg ml^−1 2
From the text: as §4, §5

[3] = system: K pneumoniae Ecl8 ΔramR pSU18; assay: MIC by broth microdilution; type: cell-based; conditions: Klebsiella pneumoniae
From the text: as §4, §5

K. pneumoniae Ecl8 pSU18 = assay: MIC by broth microdilution; type: cell-based; conditions: Klebsiella pneumoniae
From the text: as §4, §5

T7 sequence (P14489 20-266, species assumed): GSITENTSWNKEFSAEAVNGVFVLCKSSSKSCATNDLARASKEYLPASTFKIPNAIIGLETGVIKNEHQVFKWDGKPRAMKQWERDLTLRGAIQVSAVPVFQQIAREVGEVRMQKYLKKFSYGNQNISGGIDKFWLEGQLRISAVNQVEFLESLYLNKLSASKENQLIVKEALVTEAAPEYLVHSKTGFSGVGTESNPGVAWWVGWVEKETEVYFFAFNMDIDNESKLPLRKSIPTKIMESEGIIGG
T5 sequence (P26918 28-254): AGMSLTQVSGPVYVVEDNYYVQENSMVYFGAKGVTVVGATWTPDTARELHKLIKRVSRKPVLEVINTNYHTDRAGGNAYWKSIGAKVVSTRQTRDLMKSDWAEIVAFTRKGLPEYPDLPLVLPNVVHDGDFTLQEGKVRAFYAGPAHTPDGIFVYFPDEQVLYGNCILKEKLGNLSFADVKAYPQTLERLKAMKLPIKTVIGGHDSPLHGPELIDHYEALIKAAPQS
T4 sequence (C7C422 29-270, looked up, species assumed): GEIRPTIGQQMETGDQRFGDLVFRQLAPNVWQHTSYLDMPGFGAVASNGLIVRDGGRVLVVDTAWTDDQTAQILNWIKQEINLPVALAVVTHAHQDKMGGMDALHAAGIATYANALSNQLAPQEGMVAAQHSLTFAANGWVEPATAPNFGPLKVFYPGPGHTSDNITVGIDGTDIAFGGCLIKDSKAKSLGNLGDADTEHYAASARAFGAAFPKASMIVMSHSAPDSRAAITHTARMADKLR
Sequence of SPM-1 (Q8G9Q0 entry or part of it): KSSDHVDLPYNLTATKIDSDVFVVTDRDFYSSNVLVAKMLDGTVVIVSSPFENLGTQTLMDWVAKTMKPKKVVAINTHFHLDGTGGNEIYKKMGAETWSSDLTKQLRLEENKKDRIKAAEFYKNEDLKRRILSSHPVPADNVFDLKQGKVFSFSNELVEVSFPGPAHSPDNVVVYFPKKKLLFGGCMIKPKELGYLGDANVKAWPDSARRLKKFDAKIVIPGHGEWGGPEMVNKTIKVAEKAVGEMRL
T8 sequence (G3XD46 whole entry): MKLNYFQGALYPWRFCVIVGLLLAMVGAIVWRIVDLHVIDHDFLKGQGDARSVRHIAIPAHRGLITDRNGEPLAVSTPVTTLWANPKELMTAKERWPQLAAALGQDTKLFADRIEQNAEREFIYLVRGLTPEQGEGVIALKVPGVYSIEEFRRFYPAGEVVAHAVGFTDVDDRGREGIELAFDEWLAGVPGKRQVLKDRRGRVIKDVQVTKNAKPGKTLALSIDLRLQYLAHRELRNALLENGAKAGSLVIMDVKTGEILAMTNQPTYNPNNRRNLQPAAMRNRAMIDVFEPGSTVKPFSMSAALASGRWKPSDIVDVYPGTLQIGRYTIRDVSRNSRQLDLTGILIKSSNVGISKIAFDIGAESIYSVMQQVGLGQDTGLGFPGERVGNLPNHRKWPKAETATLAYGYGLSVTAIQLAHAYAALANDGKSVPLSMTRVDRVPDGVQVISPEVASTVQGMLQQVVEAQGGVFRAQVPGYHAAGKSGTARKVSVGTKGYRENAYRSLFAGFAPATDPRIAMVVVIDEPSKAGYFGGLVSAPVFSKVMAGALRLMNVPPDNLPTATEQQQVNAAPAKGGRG
T1 sequence (P04190 31-257): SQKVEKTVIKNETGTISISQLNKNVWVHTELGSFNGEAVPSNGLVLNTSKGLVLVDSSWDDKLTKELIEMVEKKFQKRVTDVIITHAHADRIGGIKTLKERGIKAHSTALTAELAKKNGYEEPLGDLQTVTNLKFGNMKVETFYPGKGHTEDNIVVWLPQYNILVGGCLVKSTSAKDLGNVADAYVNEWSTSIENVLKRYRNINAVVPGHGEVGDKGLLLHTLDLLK
T6 sequence (P62593 24-286 limits assumed): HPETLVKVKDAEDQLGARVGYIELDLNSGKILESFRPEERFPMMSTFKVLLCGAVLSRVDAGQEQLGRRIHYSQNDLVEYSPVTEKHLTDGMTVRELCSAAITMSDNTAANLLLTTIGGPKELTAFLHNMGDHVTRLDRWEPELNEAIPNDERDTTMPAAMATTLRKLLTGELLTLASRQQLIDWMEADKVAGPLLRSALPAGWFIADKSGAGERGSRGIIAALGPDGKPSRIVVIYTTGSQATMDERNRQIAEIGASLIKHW
T3 sequence (P52699 19-246, looked up, species assumed): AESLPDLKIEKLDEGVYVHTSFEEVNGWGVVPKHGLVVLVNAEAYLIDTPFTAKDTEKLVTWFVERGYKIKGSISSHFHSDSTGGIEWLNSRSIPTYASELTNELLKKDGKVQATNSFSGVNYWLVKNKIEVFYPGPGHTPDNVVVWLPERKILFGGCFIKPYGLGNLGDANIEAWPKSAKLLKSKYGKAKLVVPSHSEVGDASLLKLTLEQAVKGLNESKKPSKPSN

O=C(N[C@H]1Cc2cccc(C(=O)O)c2O[B-]1(O)O)c1ccc(CN2CCNCC2)cc1 [compound 4]
pIC50 (BcII): 6.2
IC50 (BcII): 520 nM
pIC50 (VIM-2): 7.8
IC50 (VIM-2): 14 nM
pIC50 (IMP-1): 4.7
IC50 (NDM-1): 40 nM
pIC50 (SPM-1): 4.8
IC50 (SPM-1): 13.9 µM
pIC50 (CphA): > 4
IC50 (CphA): > 100 µM
pIC50 (TEM-1): 9.4
IC50 (TEM-1): 0.3 nM
pIC50 (OXA-10): 5.6
IC50 (OXA-10): 2260 nM
IC50 (PBP 3): > 100 µM

NCCNCc1ccc(C(=O)N[C@H]2Cc3cccc(C(=O)O)c3O[B-]2(O)O)cc1 [compound 5]
pIC50 (BcII): 5.9
IC50 (BcII): 1140 nM
IC50 (VIM-2): 2 nM
pIC50 (SPM-1): 4.4
IC50 (SPM-1): 36.3 µM
pIC50 (CphA): > 4
IC50 (CphA): > 100 µM
pIC50 (TEM-1): 8.1
IC50 (TEM-1): 6 nM
pIC50 (OXA-10): 4.9
IC50 (OXA-10): 12700 nM
IC50 (PBP 3): > 100 µM

NCC1CCC(C(=O)N[C@H]2Cc3cccc(C(=O)O)c3O[B-]2(O)O)CC1 (some centres unmarked) [compound 3]
pIC50 (BcII): 6.0
IC50 (BcII): 960 nM
pIC50 (VIM-2): 7.9
IC50 (VIM-2): 11 nM
pIC50 (NDM-1): 6.1
IC50 (NDM-1): 687 nM
pIC50 (SPM-1): 4.8
IC50 (SPM-1): 16 µM
pIC50 (CphA): 4.68
IC50 (CphA): 20.9 µM
pIC50 (TEM-1): 8.5
IC50 (TEM-1): 2 nM
pIC50 (OXA-10): 6.0
IC50 (OXA-10): 830 nM
IC50 (PBP 3): > 100 µM

C[C@@H](O)[C@H]1C(=O)N2C(C(=O)O)=C(S[C@@H]3CN[C@H](C(=O)N(C)C)C3)[C@H](C)[C@H]12 [Meropenem, meropenem]
MIC ([1]; read-out: Meropenem MIC (10 μg ml^−1 2), with 10 μg ml^−1 2, Ecl8 pSU18:NDM-1): 8 µg/mL
MIC ([1]; read-out: Meropenem MIC (25 μg ml^−1 2), with 25 μg ml^−1 2, Ecl8 pSU18:NDM-1): < 8 µg/mL
MIC ([1]; read-out: Meropenem MIC, checkerboard, 2 at 0 μg mL-1): 128 µg/mL
MIC ([1]; read-out: Meropenem MIC, checkerboard, 2 at 0.5 μg mL-1): 64 µg/mL
MIC ([1]; read-out: Meropenem MIC, checkerboard, 2 at 1 μg mL-1): 32 µg/mL
MIC ([1]; read-out: Meropenem MIC, checkerboard, 2 at 2 μg mL-1): 32 µg/mL
MIC ([1]; read-out: Meropenem MIC, checkerboard, 2 at 4 μg mL-1): 16 µg/mL
MIC ([1]; read-out: Meropenem MIC, checkerboard, 2 at 8 μg mL-1): 8 µg/mL
MIC ([1]; read-out: Meropenem MIC, checkerboard, 2 at 16 μg mL-1): 4 µg/mL
MIC ([1]; read-out: Meropenem MIC, checkerboard, 2 at 32 μg mL-1): 2 µg/mL
MIC ([1]; read-out: Meropenem MIC, checkerboard, 2 at 64 μg mL-1): ≤ 1 µg/mL
MIC ([1]; read-out: Meropenem MIC, meropenem alone, Ecl8 pSU18:NDM-1): > 128 µg/mL
Meropenem MIC (25 μg ml^−1 2) ([1]; with 25 μg ml^−1 2, Ecl8 pSU18:NDM-1): 4 µg/mL
MIC (K. pneumoniae IR8; meropenem alone, read-out: Meropenem MIC): 128 µg/mL (≈ 334 µM)
MIC (K. pneumoniae IR8; with 10 μg ml^−1 2, read-out: Meropenem MIC (10 μg ml^−1 2)): 32 µg/mL (≈ 83.4 µM)
MIC (K. pneumoniae IR8; with 25 μg ml^−1 2, read-out: Meropenem MIC (25 μg ml^−1 2)): 16 µg/mL (≈ 41.7 µM)
MIC (E. coli IR10; IR10, read-out: Meropenem MIC): 128 µg/mL (≈ 334 µM)
MIC (E. coli IR10; IR10, read-out: Meropenem MIC (10 μg ml^−1 2)): 8 µg/mL (≈ 20.9 µM)
MIC (E. coli IR10; IR10, read-out: Meropenem MIC (25 μg ml^−1 2)): 2 µg/mL (≈ 5.22 µM)
MIC (E. coli IR60; IR60, read-out: Meropenem MIC): 64 µg/mL (≈ 167 µM)
MIC (E. coli IR60; IR60, read-out: Meropenem MIC (10 μg ml^−1 2)): 16 µg/mL (≈ 41.7 µM)
MIC (E. coli IR60; IR60, read-out: Meropenem MIC (25 μg ml^−1 2)): 16 µg/mL (≈ 41.7 µM)
MIC ([2]; read-out: Meropenem MIC (10 μg ml^−1 2), with 10 μg ml^−1 2): 16 µg/mL (≈ 41.7 µM)
MIC ([2]; read-out: Meropenem MIC, meropenem alone): > 128 µg/mL
Meropenem MIC (25 μg ml^−1 2) [2]: 2 µg/mL
Meropenem MIC (25 μg ml^−1 2) ([2]; listed as meropenem): < 8 µg/mL
MIC ([3]; read-out: Meropenem MIC): ≤ 0.25 µg/mL
MIC ([3]; read-out: Meropenem MIC (10 μg ml^−1 2)): ≤ 0.25 µg/mL
MIC ([3]; read-out: Meropenem MIC (25 μg ml^−1 2)): ≤ 0.25 µg/mL
MIC (K. pneumoniae Ecl8 pSU18; ECL8PSU18, read-out: Meropenem MIC): ≤ 0.25 µg/mL
MIC (K. pneumoniae Ecl8 pSU18; ECL8PSU18, read-out: Meropenem MIC (10 μg ml^−1 2)): ≤ 0.25 µg/mL
MIC (K. pneumoniae Ecl8 pSU18; ECL8PSU18, read-out: Meropenem MIC (25 μg ml^−1 2)): ≤ 0.25 µg/mL
